The results in this text go back to ChEMBL document CHEMBL1201862, “PubChem BioAssay data set” (2004).

The structures appear in SMILES notation.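 Protocol summary: plate cells (96-well), add compound at 5 concentrations, incubate 48 h, interpolate endpoints linearly. Here, GI50 denotes the concentration required for 50% inhibition of growth.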 Calls of active or inactive are those of the source. No stated cut-off is given here; in the data, active = GI50 up to about 1.1 µM and inactive = higher.

Among the test systems are 786-0; CAKI-1; HCT-15; Malme-3M; NCI-H226; NCI-H23; OVCAR-5; RXF 393; SF-295; SF-539; SK-MEL-28; SK-MEL-2; SK-OV-3; SN12C; SR; TK-10; UACC-257; UACC-62.
Experiment in all cases: NCI tumour cell line growth inhibition, 48 h

As for `CCN(CC)Cc1cc(Nc2c3ccccc3nc3c2[nH]c2ccccc23)ccc1O`, the GI50 in the assay on 786-0 is 1.13 µM (inactive); in the assay on CAKI-1, 1.46 µM (inactive); with HCT-15, 0.853 µM; in the assay on Malme-3M, 1.9 µM (inactive); with NCI-H226, 1.85 µM (inactive); with NCI-H23, 1.43 µM (inactive). The GI50 with OVCAR-5 was 1.22 µM (inactive); in the assay on RXF 393, 1.31 µM (inactive); in the assay with SF-295 it was 1.37 µM (inactive); in the assay with SF-539 it was 1.35 µM (inactive); in the assay on SK-MEL-28, 1.8 µM (inactive); in the assay on SK-MEL-2, 1.34 µM (inactive). Also, the GI50 is 2.11 µM (inactive) in the assay on SK-OV-3; 1.67 µM (inactive) in the assay with SN12C; 0.337 µM (active) with SR; 3.61 µM (inactive) with TK-10; 2.44 µM (inactive) in the assay with UACC-257; 1.62 µM (inactive) with UACC-62.

Regarding `N#CCC(=O)N1CCCCCCC1`, the GI50 in the assay with 786-0 is > 100 µM (inactive); in the assay on CAKI-1, > 100 µM (inactive); in the assay on HCT-15 it was 16.8 µM; in the assay on Malme-3M, > 100 µM (inactive); in the assay on NCI-H23, > 100 µM (inactive); with OVCAR-5, > 100 µM (inactive). Further, the GI50 in the assay with RXF 393, in the assay on SF-295, in the assay with SF-539, in the assay with SK-MEL-28, in the assay on SK-MEL-2 and in the assay with SK-OV-3 was > 100 µM (inactive) throughout. Moreover, the GI50 with SN12C, in the assay with TK-10, in the assay on UACC-257 and with UACC-62 was > 100 µM (inactive) throughout.

On to `CCOC(=O)C(=C=Cc1cccs1)C(=O)c1ccccc1`, for which the GI50 in the assay on 786-0 was 16 µM (inactive); with HCT-15 it was 16.6 µM; in the assay on Malme-3M, 15.7 µM (inactive); with NCI-H226, 15 µM (inactive); with NCI-H23, 15.4 µM (inactive); in the assay with OVCAR-5, 15.2 µM (inactive). Also, the GI50 in the assay with SF-295 was 17.8 µM (inactive); with SF-539, 16.5 µM (inactive); in the assay with SK-MEL-28, 14.8 µM (inactive); with SK-MEL-2, 19 µM (inactive); with SK-OV-3, 20.3 µM (inactive); in the assay on SN12C it was 15.8 µM (inactive). In addition, the GI50 with SR was 19.9 µM (inactive); with TK-10 it was 15 µM (inactive); with UACC-257, 12.9 µM (inactive); in the assay on UACC-62, 15.5 µM (inactive).

`COC(=O)C1=C(O)C(O)=C(C(=O)OC)CC1`: the GI50 with 786-0 is > 100 µM (inactive); in the assay with CAKI-1, > 100 µM (inactive); with HCT-15, above 100 µM; in the assay on Malme-3M it was > 100 µM (inactive); in the assay on NCI-H226, > 100 µM (inactive); in the assay on NCI-H23 it was > 100 µM (inactive). Moreover, the GI50 was > 100 µM (inactive) in the assay on OVCAR-5; 17.9 µM (inactive) in the assay with RXF 393; > 100 µM (inactive) with SF-295; > 100 µM (inactive) in the assay on SF-539; > 100 µM (inactive) with SK-MEL-28; > 100 µM (inactive) with SK-MEL-2. Also, the GI50 in the assay on SK-OV-3, with SN12C, in the assay on SR, in the assay on TK-10, in the assay with UACC-257 and with UACC-62 was > 100 µM (inactive) throughout.

In the case of `O=C(NC12CC3CC(CC(F)(C3)C1)C2)c1ccccc1`, the GI50 with 786-0, with Malme-3M, in the assay with NCI-H23, in the assay on OVCAR-5, in the assay on RXF 393 and in the assay on SF-539 was > 100 µM (inactive) throughout. The GI50 with SK-MEL-28, in the assay on SK-MEL-2, with SK-OV-3, in the assay with TK-10, with UACC-257 and in the assay with UACC-62 was > 100 µM (inactive) throughout.

Regarding `O=C1CSC(/C(=C/c2ccccc2)c2nc3ccccc3[nH]2)=N1`, the GI50 with 786-0 was 65.2 µM (inactive); in the assay on CAKI-1, > 100 µM (inactive); in the assay with HCT-15, above 100 µM; in the assay on Malme-3M it was 60.5 µM (inactive); in the assay with NCI-H226, 7.55 µM (inactive); with NCI-H23, 28.1 µM (inactive). The GI50 in the assay on OVCAR-5 was > 100 µM (inactive); in the assay on SF-295, 63.8 µM (inactive); in the assay with SF-539, 23.6 µM (inactive); with SK-MEL-28, > 100 µM (inactive); with SK-MEL-2, 58.2 µM (inactive); in the assay with SK-OV-3, 23.3 µM (inactive). In addition, the GI50 with SN12C is 75.3 µM (inactive); in the assay with SR, 68.2 µM (inactive); in the assay with TK-10, > 100 µM (inactive); in the assay on UACC-257, > 100 µM (inactive); with UACC-62, 49.8 µM (inactive).

For `N#CC(C#N)=C1SCC(=O)CS1`, the GI50 is > 100 µM (inactive) in the assay on 786-0; > 100 µM (inactive) in the assay with CAKI-1; above 100 µM in the assay with HCT-15; > 100 µM (inactive) in the assay on Malme-3M; > 100 µM (inactive) with NCI-H226; > 100 µM (inactive) with NCI-H23. Moreover, the GI50 with OVCAR-5, in the assay with RXF 393, in the assay on SF-295, in the assay with SF-539, with SK-OV-3 and with SN12C was > 100 µM (inactive) each time. Also, the GI50 with SR, with TK-10, in the assay with UACC-257 and with UACC-62 was > 100 µM (inactive) throughout.

For `CCCC(O)c1cn(-c2cccc(S(=O)(=O)O)c2)nn1` (stereo not given), the GI50 with 786-0 is > 100 µM (inactive); in the assay on CAKI-1 it was > 100 µM (inactive); with HCT-15, above 100 µM; with Malme-3M, > 100 µM (inactive); in the assay with NCI-H226 it was > 100 µM (inactive); in the assay on NCI-H23 it was > 100 µM (inactive). In addition, the GI50 in the assay with OVCAR-5, with RXF 393, in the assay with SF-295, with SF-539, in the assay on SK-MEL-28 and with SK-MEL-2 was > 100 µM (inactive) throughout. For the same molecule, the GI50 in the assay on SK-OV-3, with SN12C, in the assay with TK-10, in the assay with UACC-257 and in the assay on UACC-62 was > 100 µM (inactive) throughout.

For the molecule `COc1ccc(/C=N/N=C(\N)NO)cc1O`, the GI50 is 18.5 µM (inactive) in the assay with 786-0; 48.2 µM (inactive) in the assay on CAKI-1; 42.9 µM with HCT-15; 16.6 µM (inactive) in the assay with Malme-3M; 33.4 µM (inactive) in the assay with NCI-H226; 31.9 µM (inactive) in the assay on NCI-H23. The GI50 in the assay on OVCAR-5 is > 100 µM (inactive); in the assay on RXF 393, 41.7 µM (inactive); with SF-539, 31.2 µM (inactive); in the assay on SK-MEL-28, 49.8 µM (inactive); with SK-MEL-2, 76.4 µM (inactive); in the assay on SK-OV-3, 80.2 µM (inactive). Moreover, the results for the GI50 with SN12C and with UACC-62 were 30.9 µM (inactive) and 31.1 µM (inactive), respectively.

On to `C=CCc1cc(-c2cc(CC=C)c(O)c(CNC)c2)cc(CNC)c1O`, for which the GI50 is 15.5 µM (inactive) in the assay with 786-0; 16.6 µM in the assay with HCT-15; 18.7 µM (inactive) in the assay with Malme-3M; 16.9 µM (inactive) in the assay on NCI-H226; 15.8 µM (inactive) with NCI-H23; 16.9 µM (inactive) with SF-295. Further, the GI50 with SK-MEL-28 is 19.5 µM (inactive); in the assay with SK-MEL-2, 18.6 µM (inactive); in the assay on SN12C, 17.1 µM (inactive); with TK-10, 17.7 µM (inactive); with UACC-257, 16 µM (inactive); in the assay with UACC-62 it was 18.1 µM (inactive).

As for `O=C(COC(=O)c1cccc2c(=O)c3ccccc3[nH]c12)Nc1ccc(Cl)cc1`, the GI50 in the assay with 786-0 is 23.1 µM (inactive); with CAKI-1 it was > 100 µM (inactive); in the assay with Malme-3M, > 100 µM (inactive); in the assay on NCI-H226, 72.8 µM (inactive); in the assay with NCI-H23 it was 18.8 µM (inactive); in the assay with RXF 393 it was 16.8 µM (inactive). Moreover, the GI50 in the assay on SF-295 was 25.5 µM (inactive); in the assay with SF-539, 26.1 µM (inactive); in the assay on SK-MEL-28, > 100 µM (inactive); with SK-OV-3, 82.8 µM (inactive); in the assay with SN12C it was > 100 µM (inactive); in the assay with SR, 19.7 µM (inactive). In addition, the figures for the GI50 in the assay on TK-10, with UACC-257 and in the assay with UACC-62 were 13.1 µM (inactive), > 100 µM (inactive) and 54.1 µM (inactive), respectively.

As for `N#CC1CC2(C(=O)C1=O)c1ccccc1-c1ccccc12` (stereo not given), the GI50 was > 100 µM (inactive) with 786-0; > 100 µM (inactive) in the assay with CAKI-1; above 100 µM in the assay on HCT-15; > 100 µM (inactive) with Malme-3M; > 100 µM (inactive) in the assay with NCI-H226; > 100 µM (inactive) in the assay on NCI-H23. Moreover, the GI50 in the assay with OVCAR-5, with RXF 393, in the assay with SF-295, with SK-MEL-28, in the assay on SK-MEL-2 and in the assay on SK-OV-3 was > 100 µM (inactive) in each case. Besides, the GI50 in the assay with SN12C, in the assay on SR, in the assay with TK-10, in the assay on UACC-257 and in the assay on UACC-62 was > 100 µM (inactive) each time.

Turning to `C/C(=N/Nc1ccc([N+](=O)[O-])cc1[N+](=O)[O-])C(CC(C(=O)Nc1ccccc1C)/C(C)=N\Nc1ccc([N+](=O)[O-])cc1[N+](=O)[O-])C(=O)Nc1ccccc1C` (stereo not given), the GI50 in the assay on 786-0 was 17.9 µM (inactive); with CAKI-1 it was 14.2 µM (inactive); with HCT-15 it was 32.9 µM; in the assay with Malme-3M it was 22.5 µM (inactive); with NCI-H226, 6.65 µM (inactive); in the assay on NCI-H23, 11.3 µM (inactive). Further, the GI50 with OVCAR-5 was 16.9 µM (inactive); in the assay on RXF 393 it was 6.49 µM (inactive); with SF-295, 16.1 µM (inactive); in the assay on SF-539, 13 µM (inactive); with SK-MEL-28 it was 21.9 µM (inactive); with SK-MEL-2, 13.3 µM (inactive). The GI50 in the assay with SK-OV-3 is 30.1 µM (inactive); in the assay on SN12C it was 6 µM (inactive); in the assay with TK-10, 17.9 µM (inactive); with UACC-257, 14.4 µM (inactive); in the assay on UACC-62, 19.6 µM (inactive).
